Data taken from patent US11702404B2, “GLP-1R modulating compounds” (priority 2019, dated 2023).
Where two headings read alike, the source gives them in different places.

Legend:
GLP-1R = GLP-1R (Homo sapiens, UniProt P43220); assay: GLP-1R activation: cAMP increase in CHO cells stably expressing GLP-1R; format: cell-based
[1] = Microsomal stability, human liver microsomes (predicted hepatic clearance); details: predicted from in vitro microsomal stability data
[2] = cAMP increase, CHO cells stably expressing GLP-1R, 10 point dose response, 30 minutes incubation, read-out: EC50

Sequence of GLP-1R (P43220 24-463): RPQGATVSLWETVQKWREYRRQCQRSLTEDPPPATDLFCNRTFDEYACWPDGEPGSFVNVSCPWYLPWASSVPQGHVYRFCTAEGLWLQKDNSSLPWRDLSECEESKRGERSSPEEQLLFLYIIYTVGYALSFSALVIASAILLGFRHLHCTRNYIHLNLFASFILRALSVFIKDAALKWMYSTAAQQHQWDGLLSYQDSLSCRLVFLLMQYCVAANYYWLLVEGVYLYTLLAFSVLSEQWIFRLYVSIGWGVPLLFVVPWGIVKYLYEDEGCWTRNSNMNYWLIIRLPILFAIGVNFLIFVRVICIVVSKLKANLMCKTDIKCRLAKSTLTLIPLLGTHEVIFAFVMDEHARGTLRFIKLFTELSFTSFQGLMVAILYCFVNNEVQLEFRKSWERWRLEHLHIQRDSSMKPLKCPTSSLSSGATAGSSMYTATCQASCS

Structure (SMILES)	EC50 (GLP-1R; [2])	Predicted Hepatic Clearance (Pred. Cl.) [1]	EC50 (GLP-1R; EC50 (nM))	EC50 (GLP-1R; read-out: EC50)
COCCn1c(Cc2ccc(-c3nc(OCc4ccc(C#N)cc4F)ns3)cc2F)nc2ccc(C(=O)O)cc21 [Example 62, 2-(4-(3-((4-cyano-2-fluorobenzyl)oxy)-1,2,4-thiadiazol-5-yl)-2-fluorobenzyl)-1-(2-methoxyethyl)-1H-benzo[d]imidazole-6-carboxylic acid]	1430 nM	6.7 mL/min/kg		
COC1(Cn2c(Cc3cc(F)c(-c4cccc(OCc5ccc(C#N)cc5F)n4)cc3F)nc3ccc(C(=O)O)cc32)CN(S(C)(=O)=O)C1 [Example 688]	1220 nM	10.3 mL/min/kg		
COCCn1c(Cc2ccc(-c3cccc(OCc4ccc(C#N)cc4F)n3)c(C)c2)nc2ccc(C(=O)O)cc21 [Example 21, 2-(4-(6-((4-cyano-2-fluorobenzyl)oxy)pyridin-2-yl)-3-methylbenzyl)-1-(2-methoxyethyl)-1H-benzo[d]imidazole-6-carboxylic acid]		<1.83 mL/min/kg	70.9 nM	
CN1CC2CC1(Cn1c(Cc3cc(F)c(-c4cccc(OCc5ccc(C#N)cc5F)n4)cc3F)nc3ccc(C(=O)O)cc31)C2 [Example 697]		1.83 mL/min/kg		25.6 nM
N#Cc1ccc(COc2cccc(-c3cc(F)c(Cc4nc5c(F)cc(C(=O)O)cc5n4C[C@@H]4CCO4)cc3F)n2)c(F)c1 [Example 896]	0.03 nM	4.5 mL/min/kg		
N#Cc1ccc(COc2cccc(-c3ccc(Cc4nc5c(F)cc(C(=O)O)cc5n4CC4(CF)CC4)cc3F)n2)c(F)c1 [Example 276, 2-(4-(6-((4-cyano-2-fluorobenzyl)oxy)pyridin-2-yl)-3-fluorobenzyl)-4-fluoro-1-((1-(fluoromethyl)cyclopropyl)methyl)-1H-benzo[d]imidazole-6-carboxylic acid]	0.23 nM	6.42 mL/min/kg		
COCCn1c(Cc2c(F)cc(-c3ccnnc3OCc3ccc(C#N)cc3F)cc2F)nc2ccc(C(=O)O)cc21 [Example 103, 2-[[4-[3-[(4-cyano-2-fluoro-phenyl)methoxy]pyridazin-4-yl]-2,6-difluoro-phenyl]methyl]-3-(2-methoxyethyl)benzimidazole-5-carboxylic acid]	4980 nM	5.17 mL/min/kg		
N#Cc1ccc(COc2cccc(-c3ccn(Cc4nc5ccc(C(=O)O)cc5n4CC4(CF)CC4)c(=O)c3)n2)c(F)c1 [Example 424, 2-((6-((4-cyano-2-fluorobenzyl)oxy)-2′-oxo-[2,4′-bipyridin]-1′(2′H)-yl)methyl)-1-((1-(fluoromethyl)cyclopropyl)methyl)-1H-benzo[d]imidazole-6-carboxylic acid]	15.7 nM	2.33 mL/min/kg		
COCCn1c(Cc2ccc(-c3cccc(NCc4ccc(C#N)cc4OC)n3)cc2F)nc2ccc(C(=O)O)cc21 [Example 195]	15.8 nM	9.5 mL/min/kg		
N#Cc1ccc(COc2cccc(-c3ccc(Cc4nc5ccc(C(=O)O)cc5n4CC4(n5cncn5)CC4)c(F)c3)n2)c(F)c1 [Example 313, 1-((1-(1H-1,2,4-triazol-1-yl)cyclopropyl)methyl)-2-(4-(6-((4-cyano-2-fluorobenzyl)oxy)pyridin-2-yl)-2-fluorobenzyl)-1H-benzo[d]imidazole-6-carboxylic acid]	3.25 nM	7.17 mL/min/kg		
COCCn1c(Cc2ccc(-c3cccc(NC(=O)c4ccc(C#N)cc4F)n3)cc2F)nc2ccc(C(=O)O)cc21 [Example 113, 2-(4-(6-(4-cyano-2-fluorobenzamido)pyridin-2-yl)-2-fluorobenzyl)-1-(2-methoxyethyl)-1H-benzo[d]imidazole-6-carboxylic acid]	2150 nM	9.83 mL/min/kg		
O=C(O)c1cc(F)c2nc(Cc3ccc(-c4ccc(F)c(OCc5ccc(C(F)F)cc5F)n4)cc3F)n(CC34CC(CO3)C4)c2c1 [Example 770]	2.62 nM	1.83 mL/min/kg		
N#Cc1ccc(COc2cccc(-c3cc(F)c(Cc4nc5ccc(C(=O)O)cc5n4[C@@H]4CCNC4=O)cc3F)n2)c(F)c1 [Example 631]	74.9 nM	3 mL/min/kg		
N#Cc1ccc(COc2nc(-c3ccc(Cc4nc5c(F)cc(C(=O)O)cc5n4C[C@@H]4CCO4)cc3F)ncc2F)c(F)c1 [Example 666]	0.51 nM	3.33 mL/min/kg		
C[C@H](O)Cn1c(Cc2cc(F)c(-c3cccc(OCc4ccc(C#N)cc4F)n3)cc2F)nc2ccc(C(=O)O)cc21 [Example 723]		3.5 mL/min/kg	5.19 nM	
O=C(O)c1ccc2nc(Cc3cc(F)c(-c4cccc(OCc5ccc(C(F)F)cc5F)n4)cc3F)n(CC34CC(CO3)C4)c2c1 [Example 670]	0.51 nM	3.17 mL/min/kg		

Structure (SMILES)	EC50 (GLP-1R; [2])	Predicted Hepatic Clearance (Pred. Cl.) [1]	EC50 (GLP-1R; EC50 (nM))	EC50 (GLP-1R; read-out: EC50)
COCCn1c(Cc2ccc(-c3ccnc(OCc4ccc(C#N)cc4OC)n3)c(F)c2)nc2ccc(C(=O)O)cc21 [Example 109, 2-(4-(2-((4-cyano-2-methoxybenzyl)oxy)pyrimidin-4-yl)-3-fluorobenzyl)-1-(2-methoxyethyl)-1H-benzo[d]imidazole-6-carboxylic acid]	3.38 nM	12.3 mL/min/kg		
N#Cc1ccc(COc2cccc(-c3ccc(Cc4nc5ccc(C(=O)O)nc5n4CC4(CF)CC4)c(F)c3)n2)c(F)c1 [Example 355, 2-(4-(6-((4-cyano-2-fluorobenzyl)oxy)pyridin-2-yl)-2-fluorobenzyl)-3-((1-(fluoromethyl)cyclopropyl)methyl)-3H-imidazo[4,5-b]pyridine-5-carboxylic acid]	0.97 nM	3.3 mL/min/kg		
N#Cc1ccc(COc2cccc(-c3cc(F)c(Cc4nc5ccc(C(=O)O)cc5n4Cc4ncccn4)cc3F)n2)c(F)c1 [Example 269, 2-(4-(6-((4-cyano-2-fluorobenzyl)oxy)pyridin-2-yl)-2,5-difluorobenzyl)-1-(pyrimidin-2-ylmethyl)-1H-benzo[d]imidazole-6-carboxylic acid]	51.7 nM	5.83 mL/min/kg		
COCCn1c(Cc2c(F)cc(-c3cccnc3OCc3ccc(C#N)cc3F)cc2F)nc2ccc(C(=O)O)cc21 [Example 179, 2-(4-(2-((4-cyano-2-fluorobenzyl)oxy)pyridin-3-yl)-2,6-difluorobenzyl)-1-(2-methoxyethyl)-1H-benzo[d]imidazole-carboxylic acid]	45.6 nM	3.5 mL/min/kg		
COCCn1c(Cc2ccc(-c3cccc(OCc4ccc(C#N)cc4F)n3)cc2COC)nc2ccc(C(=O)O)cc21 [Example 411, 2-(4-(6-((4-cyano-2-fluorobenzyl)oxy)pyridin-2-yl)-2-(methoxymethyl)benzyl)-1-(2-methoxyethyl)-1H-benzo[d]imidazole-6-carboxylic acid]		9.33 mL/min/kg	140 nM	
COc1cc(Cl)ccc1COc1nccc(-c2ccc(Cc3nc4ccc(C(=O)O)nc4n3CC3(CF)CC3)cc2F)n1 [Example 233, 2-(4-(2-((4-chloro-2-methoxybenzyl)oxy)pyrimidin-4-yl)-3-fluorobenzyl)-3-((1-(fluoromethyl)cyclopropyl)methyl)-3H-imidazo[4,5-b]pyridine-5-carboxylic acid]	1.35 nM	10.3 mL/min/kg		
COCCn1c(Cc2cc(F)c(-c3cccc(OCc4ccc(C#N)s4)n3)cc2F)nc2ccc(C(=O)O)cc21 [Example 805]	7.12 nM	12 mL/min/kg		
N#Cc1ccc(COc2cccc(-c3ccc(Cc4nc5c(F)cc(C(=O)O)cc5n4CC4(C(F)F)CC4)c(F)c3)n2)c(F)c1 [Example 297, 2-(4-(6-((4-cyano-2-fluorobenzyl)oxy)pyridin-2-yl)-2-fluorobenzyl)-1-((1-(difluoromethyl)cyclopropyl)methyl)-4-fluoro-1H-benzo[d]imidazole-6-carboxylic acid]	1.71 nM	2.5 mL/min/kg		
CS(=O)(=O)N1CC[C@@H]1Cn1c(Cc2ccc(-c3cccc(OCc4ccc(C#N)cc4F)n3)cc2F)nc2ccc(C(=O)O)cc21 [Example 888, 2-[[4-[6-[(4-cyano-2-fluoro-phenyl)methoxy]-2-pyridyl]-2-fluoro-phenyl]methyl]-3-[[(2R)-1-methylsulfonylazetidin-2-yl]methyl]benzimidazole-5-carboxylic acid]		5.83 mL/min/kg		6.01 nM
COCCn1c(Cc2ccc(-c3cccc(OCc4ccc(C#N)cc4F)n3)c3c2COC3)nc2ccc(C(=O)O)cc21 [Example 903, 2-((7-(6-((4-cyano-2-fluorobenzyl)oxy)pyridin-2-yl)-1,3-dihydroisobenzofuran-4-yl)methyl)-1-(2-methoxyethyl)-1H-benzo[d]imidazole-6-carboxylic acid]	107 nM	1.83 mL/min/kg		
CO[C@@H]1COC[C@@H]1n1c(Cc2cc(F)c(-c3cccc(OCc4ccc(C#N)cc4F)n3)cc2F)nc2ccc(C(=O)O)cc21 [Example 711]	0.08 nM	6.33 mL/min/kg		
COCCn1c(Cc2ccc(-c3cccc(OCc4ccc(C#CC(C)(C)O)cc4F)n3)cc2F)nc2ccc(C(=O)O)cc21 [Example 841]	164 nM	6.17 mL/min/kg		
N#Cc1ccc(COc2cccc(-c3ccc(Cc4nc5c(F)cc(C(=O)O)cc5n4C[C@@H](O)CCO)cc3F)n2)c(F)c1 [Example 471, (S)-2-(4-(6-((4-cyano-2-fluorobenzyl)oxy)pyridin-2-yl)-3-fluorobenzyl)-1-(2,4-dihydroxybutyl)-4-fluoro-1H-benzo[d]imidazole-6-carboxylic]	13.7 nM	4 mL/min/kg		
N#Cc1ccc(COc2cccc(-c3cc(F)c(Cc4nc5ccc(C(=O)O)cc5n4[C@H]4CC[C@@H]4O)cc3F)n2)c(F)c1 [Example 705]	73.2 nM	13.3 mL/min/kg		
N#Cc1cc(F)c(COc2ccnc(-c3cc(F)c(Cc4nc5ccc(C(=O)O)cc5n4C[C@@H]4CCO4)cc3F)n2)cc1F [Example 755]	0.42 nM	9.83 mL/min/kg		
